Results: patent publication US6537948B1, “Uracil compounds and use thereof” (Sumitomo Chemical Company, Limited, priority 2000, dated 2003)

What was measured:
[1] = system: velvetleaf (Abutilon theophrasti); assay: Test Example 1: foliar treatment of field; assay type: in vivo; conditions: foliar spray, dosage 125 g/ha, 16 days after application
Protocol: (§1) A cylindrical plastic pot having a diameter of 10 cm and a depth of 10 cm was filled with soil and then seeded with ivyleaf morningglory (Ipomoea hederacea) and velvetleaf (Abutilon theophrasti). These test plants were grown in a greenhouse for 10 days. Then, each of compounds 1-2, 1-42, 1-45, 1-48, 2-2, 2-7, 2-42, 2-45, 3-2, 3-12, 4-7, 4-85, 5-12-R, 5-12-S, 5-17, 6-2, 7-2, 7-6, 7-8, 7-12, 7-48, 7-50, 7-84, 7-118, 7-119, 7-125, 9-7, 9-27 and 9-45 was formulated into an emulsifiable concentrate according to Formulation Example 2 and then diluted to the prescribed amount with water containing a spreading agent and the dilution was uniformly sprayed over the foliage of the test plants with a sprayer at a rate of 1000 liters per hectare. After the application, the test plants were grown in the greenhouse for 16 days, and the herbicidal activity was determined.

[2] = system: ivyleaf morningglory (Ipomoea hederacea); assay: Test Example 1: foliar treatment of field; assay type: in vivo; conditions: foliar spray, dosage 125 g/ha, 16 days after application
Protocol: as §1

[3] = system: velvetleaf (Abutilon theophrasti); assay: Test Example 2: soil surface treatment of field; assay type: in vivo; conditions: soil surface spray, dosage 500 g/ha, 19 days after application
From the text: (§2) A cylindrical plastic pot having a diameter of 10 cm and a depth of 10 cm was filled with soil and then seeded with ivyleaf morningglory (Ipomoea hederacea) and velvetleaf (Abutilon theophrasti). Then, each of the compounds 1-2, 1-42, 1-48, 2-2, 2-7, 2-42, 2-45, 3-2, 3-12, 4-7, 4-85, 5-12-R, 5-12-S, 5-17, 6-2, 7-2, 7-6, 7-8, 7-12, 7-48, 7-50, 7-84, 7-118, 7-119, 7-125, 9-7, 9-27 and 9-45 was formulated into an emulsifiable concentrate according to Formulation Example 2 and then diluted to the prescribed amount with water, and the dilution was uniformly sprayed over the surface of the soil with a sprayer at a rate of 1000 liters per hectare. After the application, the test plants were grown in the greenhouse for 19 days, and the herbicidal activity was examined.

[4] = system: ivyleaf morningglory (Ipomoea hederacea); assay: Test Example 2: soil surface treatment of field; assay type: in vivo; conditions: soil surface spray, dosage 500 g/ha, 19 days after application
From the text: as §2

## COC(=O)C(C)Oc1cc(OC)nc(Oc2cc(-n3c(=O)cc(C(F)(F)F)n(C)c3=O)c(F)cc2Cl)n1 (centres unmarked) [Compound 1-42, 2-{2-chloro-4-fluoro-5-[3-methyl-2,6-dioxo-4-(trifluoromethyl)-1,2,3,6-tetrahydropyrimidin-1-yl]phenoxy}-6-methoxy-4-{1-(methoxycarbonyl)ethoxy}pyrimidine]
[1]
  growth of velvetleaf (herbicidal activity): completely controlled
[2]
  growth of ivyleaf morningglory (herbicidal activity): completely controlled
other
  melting point: 71.2 °C
[3]
  growth of velvetleaf (herbicidal activity): completely controlled
[4]
  growth of ivyleaf morningglory (herbicidal activity): completely controlled

## COC(=O)COc1cncnc1Oc1cc(-n2c(=O)cc(C(F)(F)F)n(C)c2=O)c(F)cc1Cl [Compound 3-57, 4-{2-chloro-4-fluoro-5-[3-methyl-2,6-dioxo-4-(trifluoromethyl)-1,2,3,6-tetrahydropyrimidin-1-yl]phenoxy}-5-(methoxycarbonyl)methoxypyrimidine]
other
  melting point: 62.5 °C

## COC(=O)COc1ncncc1Oc1cc(-n2c(=O)cc(C(F)(F)F)n(C)c2=O)c(F)cc1Cl [Compound 4-7, 5-{2-chloro-4-fluoro-5-[3-methyl-2,6-dioxo-4-(trifluoromethyl)-1,2,3,6-tetrahydropyrimidin-1-yl]phenoxy}-4-(methoxycarbonyl)methoxypyrimidine]
[1]
  growth of velvetleaf (herbicidal activity): completely controlled
[2]
  growth of ivyleaf morningglory (herbicidal activity): completely controlled
other
  melting point: 52.5 °C
[3]
  growth of velvetleaf (herbicidal activity): completely controlled
[4]
  growth of ivyleaf morningglory (herbicidal activity): completely controlled

## COC(=O)C(C)Oc1ccnc(Sc2cc(-n3c(=O)cc(C(F)(F)F)n(C)c3=O)c(F)cc2Cl)n1 (centres unmarked) [Compound 6-2, methyl 2-([2-{2-chloro-4-fluoro-5-[3-methyl-2,6-dioxo-4-(trifluoromethyl)-1,2,3,6-tetrahydropyrimidin-1-yl]phenylthio}pyrimidin-4-yl]oxy}propionate]
[1]
  growth of velvetleaf (herbicidal activity): completely controlled
[2]
  growth of ivyleaf morningglory (herbicidal activity): completely controlled
other
  melting point: 60.2 °C
[3]
  growth of velvetleaf (herbicidal activity): completely controlled
[4]
  growth of ivyleaf morningglory (herbicidal activity): completely controlled

## CCCOC(=O)COc1ncccc1Oc1cc(-n2c(=O)cc(C(F)(F)F)n(C)c2=O)c(F)cc1Cl [Compound 7-48, 3-{2-chloro-4-fluoro-5-[3-methyl-2,6-dioxo-4-(trifluoromethyl)-1,2,3,6-tetrahydropyrimidin-1-yl]phenoxy}-2-(n-propoxycarbonyl)methoxypyridine]
[1]
  growth of velvetleaf (herbicidal activity): completely controlled
[2]
  growth of ivyleaf morningglory (herbicidal activity): completely controlled
[3]
  growth of velvetleaf (herbicidal activity): completely controlled
[4]
  growth of ivyleaf morningglory (herbicidal activity): completely controlled

## CCCCCOC(=O)COc1ncccc1Oc1cc(-n2c(=O)cc(C(F)(F)F)n(C)c2=O)c(F)cc1Cl [Compound 7-50, 3-{2-chloro-4-fluoro-5-[3-methyl-2,6-dioxo-4-(trifluoromethyl)-1,2,3,6-tetrahydropyrimidin-1-yl]phenoxy}-2-(n-pentyloxycarbonyl)methoxypyridine]
[1]
  growth of velvetleaf (herbicidal activity): completely controlled
[2]
  growth of ivyleaf morningglory (herbicidal activity): completely controlled
[3]
  growth of velvetleaf (herbicidal activity): completely controlled
[4]
  growth of ivyleaf morningglory (herbicidal activity): completely controlled

## CONC(=O)COc1ncccc1Oc1cc(-n2c(=O)cc(C(F)(F)F)n(C)c2=O)c(F)cc1Cl [Compound 7-84, 3-{2-chloro-4-fluoro-5-[3-methyl-2,6-dioxo-4-(trifluoromethyl)-1,2,3,6-tetrahydropyrimidin-1-yl]phenoxy}-2-[(methoxyaminocarbonyl)methoxy]pyridine]
[1]
  growth of velvetleaf (herbicidal activity): completely controlled
[2]
  growth of ivyleaf morningglory (herbicidal activity): completely controlled
[3]
  growth of velvetleaf (herbicidal activity): completely controlled
[4]
  growth of ivyleaf morningglory (herbicidal activity): completely controlled

## CC(C)=NOC(=O)COc1ncccc1Oc1cc(-n2c(=O)cc(C(F)(F)F)n(C)c2=O)c(F)cc1Cl [Compound 7-118, 3-{2-chloro-4-fluoro-5-[3-methyl-2,6-dioxo-4-(trifluoromethyl)-1,2,3,6-tetrahydropyrimidin-1-yl]phenoxy}-2-isopropylidenaminoxycarbonylmethoxypyridine]
[1]
  growth of velvetleaf (herbicidal activity): completely controlled
[2]
  growth of ivyleaf morningglory (herbicidal activity): completely controlled
[3]
  growth of velvetleaf (herbicidal activity): completely controlled
[4]
  growth of ivyleaf morningglory (herbicidal activity): completely controlled

## COC(=O)COC(=O)COc1ncccc1Oc1cc(-n2c(=O)cc(C(F)(F)F)n(C)c2=O)c(F)cc1Cl [Compound 7-119, 3-{2-chloro-4-fluoro-5-[3-methyl-2,6-dioxo-4-(trifluoromethyl)-1,2,3,6-tetrahydropyrimidin-1-yl]phenoxy}-2-[(methoxycarbonyl)methoxycarbonylmethoxy]pyridine]
[1]
  growth of velvetleaf (herbicidal activity): completely controlled
[2]
  growth of ivyleaf morningglory (herbicidal activity): completely controlled
[3]
  growth of velvetleaf (herbicidal activity): completely controlled
[4]
  growth of ivyleaf morningglory (herbicidal activity): completely controlled

## Cn1c(C(F)(F)F)cc(=O)n(-c2cc(Oc3cccnc3OCC(=O)OC3CCCC3)c(Cl)cc2F)c1=O [Compound 7-125, 3-{2-chloro-4-fluoro-5-[3-methyl-2,6-dioxo-4-(trifluoromethyl)-1,2,3,6-tetrahydropyrimidin-1-yl]phenoxy}-2-(c-pentyloxycarbonyl)methoxypyridine]
[1]
  growth of velvetleaf (herbicidal activity): completely controlled
[2]
  growth of ivyleaf morningglory (herbicidal activity): completely controlled
[3]
  growth of velvetleaf (herbicidal activity): completely controlled
[4]
  growth of ivyleaf morningglory (herbicidal activity): completely controlled

## COC(=O)COc1ncccc1Oc1cc(-n2c(=O)cc(C(F)(F)F)n(C)c2=O)c(F)cc1Br [Compound 9-7, 3-{2-bromo-4-fluoro-5-[3-methyl-2,6-dioxo-4-(trifluoromethyl)-1,2,3,6-tetrahydropyrimidin-1-yl]phenoxy}-2-(methoxycarbonyl)methoxypyridine]
[1]
  growth of velvetleaf (herbicidal activity): completely controlled
[2]
  growth of ivyleaf morningglory (herbicidal activity): completely controlled
[3]
  growth of velvetleaf (herbicidal activity): completely controlled
[4]
  growth of ivyleaf morningglory (herbicidal activity): completely controlled

## COC(=O)COc1ncccc1Oc1cc(-n2c(=O)cc(C(F)(F)F)n(C)c2=O)c(F)cc1C#N [Compound 9-27, 3-{2-cyano-4-fluoro-5-[3-methyl-2,6-dioxo-4-(trifluoromethyl)-1,2,3,6-tetrahydropyrimidin-1-yl]phenoxy}-2-(methoxycarbonyl)methoxypyridine]
[1]
  growth of velvetleaf (herbicidal activity): completely controlled
[2]
  growth of ivyleaf morningglory (herbicidal activity): completely controlled
other
  melting point: 173.1 °C
[3]
  growth of velvetleaf (herbicidal activity): completely controlled
[4]
  growth of ivyleaf morningglory (herbicidal activity): completely controlled

## COC(=O)COc1ncccc1Oc1cc(-n2c(=O)cc(C(F)(F)F)n(C)c2=O)c(F)cc1[N+](=O)[O-] [Compound 9-45, 3-{4-fluoro-5-[3-methyl-2,6-dioxo-4-(trifluoromethyl)-1,2,3,6-tetrahydropyrimidin-1-yl]-2-nitrophenoxy}-2-(methoxycarbonyl)methoxypyridine]
[1]
  growth of velvetleaf (herbicidal activity): completely controlled
[2]
  growth of ivyleaf morningglory (herbicidal activity): completely controlled
[3]
  growth of velvetleaf (herbicidal activity): completely controlled
[4]
  growth of ivyleaf morningglory (herbicidal activity): completely controlled
